# Experimental data as given in US20250041262A1, “COMPOSITIONS FOR THE TREATMENT OF FGFR3-RELATED COGNITIVE DEFICITS WITH A CATECHIN” (INSTITUT NATIONAL DE LA SANTÉ ET DE LA RECHERCHE MÉDICALE, priority 2021, published 2025).
# Assays:
# [1] = test system: Fgfr3^N534K/+ mice (hypochondroplasia mouse model); experiment: Novel object location (NOL), spatial memory, HCH mouse model; format: in vivo
# Method: 4 months old Fgfr3^N534K/+ mice and Fgfr3^A385E/+ mice received daily subcutaneous administration of (−)-epicatechin (0.15 mg/kg) or vehicle (HcL 3.5 mM, DMSO 2%) for at least seven days. For habituation and testing NOR and NOL, injection was performed 1 hour before testing phase. Timing of injection for the different tests: NOL at 7 days, NOR at 14 days, TST: at 22 days and FST at 24 days. For the novel object location task, all procedures were identical to the novel object recognition task except that during the testing phase, rather than presenting a novel object, mice encountered both familiar objects, with one object located in a different place in the arena. The time and frequency of exploration of the novel/relocated object is measured as an index of memory. Behavior was scored on videos by two observers blind to treatment and the total exploration time of the objects was quantified in the testing phases. To confirm the direct implication of brain FGFR3 in cognitive disorders observed in Fgfr3^N534K/+ mice, we decided to treat mice with (−)-epicatechin bottle treatment. The animals were treated with bottle (−)-epicatechin (3 mg/L) during 4 weeks before behavioural tests.
# [2] = test system: Fgfr3^N534K/+ mice (hypochondroplasia mouse model); experiment: Novel object recognition (NOR), episodic memory, HCH mouse model; format: in vivo
# Method: (§1) 4 months old Fgfr3^N534K/+ mice and Fgfr3^A385E/+ mice received daily subcutaneous administration of (−)-epicatechin (0.15 mg/kg) or vehicle (HcL 3.5 mM, DMSO 2%) for at least seven days. For habituation and testing NOR and NOL, injection was performed 1 hour before testing phase. Timing of injection for the different tests: NOL at 7 days, NOR at 14 days, TST: at 22 days and FST at 24 days.
# (§2) We used a modified version of the NOR task as described in Glatigny et al., 2019. Mice were transported a short distance from the holding mouse facility to the testing room in their home cages and left undisturbed for at least one hour before the beginning of the test. The testing room was lit with two 60-W light bulbs and behavior sessions were recorded with a camera above the testing arena (grey plastic box (60×40×32 cm)). […] The objects elicited equal levels of exploration as determined in pilot experiments and training phase. […]
# (§3) The following behaviors were considered as exploration of the objects: sniffing, licking, or touching the object with the nose or with the front legs or directing the nose to the object at a distance≤1 cm. Investigation was not scored if the mouse was on top of the object or completely immobile. The discrimination index was calculated as (time spent exploring the new object-time spent exploring the familiar object)/(total time spent exploring both objects). […]
# [3] = test system: Fgfr3^A385E/+ mice (CAN mouse model); experiment: Novel object recognition (NOR), CAN mouse model; format: in vivo; details: subcutaneous injections for 7 days at least; 4-month-old mice
# Method: as §1, §2, §3
# [4] = test system: Fgfr3^A385E/+ mice (CAN mouse model); experiment: Forced swim test (FST), CAN mouse model; format: in vivo; details: subcutaneous injections for 7 days at least; 4-month-old mice
# Method: (§4) 4 months old Fgfr3^N534K/+ mice and Fgfr3^A385E/+ mice received daily subcutaneous administration of (−)-epicatechin (0.15 mg/kg) or vehicle (HcL 3.5 mM, DMSO 2%) for at least seven days. For habituation and testing NOR and NOL, injection was performed 1 hour before testing phase. Timing of injection for the different tests: NOL at 7 days, NOR at 14 days, TST: at 22 days and FST at 24 days. This test is based on a similar observation than the TST. Each mouse is placed in a cylinder (height: 25 cm and diameter: 10 cm) filled with water (23-25° C.). Mice were tested for 5 min, and the time spent immobile (behavioral despair) was quantified.
# [5] = test system: Fgfr3^N534K/+ mice (hypochondroplasia mouse model); experiment: Tail suspension test (TST), HCH mouse model; format: in vivo; details: bottle treatment 3 mg/L, 4 weeks; adult mice
# Method: This test is based on the observation that rodents, after initial escape-oriented movements, develop an immobile posture when placed in an inescapable stressful situation. Each mouse is hung in an uncontrollable fashion by their tail at above 25 cm from the floor. Mice were tested for 5 min, and the time spent immobile was quantified. To confirm the direct implication of brain FGFR3 in cognitive disorders observed in Fgfr3^N534K/+ mice, we decided to treat mice with (−)-epicatechin bottle treatment. The animals were treated with bottle (−)-epicatechin (3 mg/L) during 4 weeks before behavioural tests.
# [6] = test system: Fgfr3^N534K/+ mice (hypochondroplasia mouse model); experiment: Forced swim test (FST), HCH mouse model; format: in vivo; details: adult mice
# Method: as §4, with “quantified. To confirm the direct implication of brain FGFR3 in cognitive disorders observed in Fgfr3^N534K/+ mice, we decided to treat mice with (−)-epicatechin bottle treatment. The animals were treated with bottle (−)-epicatechin (3 mg/L) during 4 weeks before behavioural tests.” for “quantified.”
# [7] = test system: Fgfr3^N534K/+ mice (hypochondroplasia mouse model); experiment: Morris water maze (MWM), spatial memory, HCH mouse model; format: in vivo; details: bottle treatment 3 mg/L, 4 weeks; adult mice
# Method: The Morris water maze (MWM) is a test of spatial learning for mice that relies on distal cues to navigate from a start location to locate a submerged escape platform. Spatial learning is assessed across repeated trials during 8 days and reference memory is determined by location of the platform area. To confirm the direct implication of brain FGFR3 in cognitive disorders observed in Fgfr3^N534K/+ mice, we decided to treat mice with (−)-epicatechin bottle treatment. The animals were treated with bottle (−)-epicatechin (3 mg/L) during 4 weeks before behavioural tests.
# [8] = test system: Fgfr3^N534K/+ mice (hypochondroplasia mouse model); experiment: Contextual fear conditioning (CFC), associative memory, HCH mouse model; format: in vivo; details: bottle treatment 3 mg/L, 4 weeks; adult mice
# Text: We performed on 4-month-old male mice a test related to the hippocampus associative memory (one-trial contextual fear conditioning, CFC). This test allows us to understand the ability of mice to remember an event associated with memory integration. During this behavorial test, we assess the freezing time of the mice, the mutant mice baseline was similar to control littermates during the training phase (p=0,2303). […] To confirm the direct implication of brain FGFR3 in cognitive disorders observed in Fgfr3^N534K/+ mice, we decided to treat mice with (−)-epicatechin bottle treatment. The animals were treated with bottle (−)-epicatechin (3 mg/L) during 4 weeks before behavioural tests.
# [9] = test system: Fgfr3^N534K/+ mice (hypochondroplasia mouse model); experiment: Bar beam, locomotion and fine coordination, HCH mouse model; format: in vivo; details: bottle treatment 3 mg/L, 4 weeks; adult mice
# Text: The bar beam is a test to measure fine motor coordination and balance in mice by assessing if the mice stay upright and walk across an elevated narrow beam to a safe platform. This test takes place over 2 consecutive days and we measured the time it takes for the mouse to traverse the beam and the maximum distance done To confirm the direct implication of brain FGFR3 in cognitive disorders observed in Fgfr3^N534K/+ mice, we decided to treat mice with (−)-epicatechin bottle treatment. The animals were treated with bottle (−)-epicatechin (3 mg/L) during 4 weeks before behavioural tests.
# [10] = test system: Fgfr3^Y367C/+ mouse model; details: cited from earlier work
# FGFR3 = FGFR3 (Homo sapiens, UniProt P22607); details: reason for selection; no test described; cited from earlier work
# [11] = bottle treatment 3 mg/L, 4 weeks, adult mice
# [12] = subcutaneous injection, in vivo and/or in vitro
# Sequence of FGFR3 (P22607 23-806): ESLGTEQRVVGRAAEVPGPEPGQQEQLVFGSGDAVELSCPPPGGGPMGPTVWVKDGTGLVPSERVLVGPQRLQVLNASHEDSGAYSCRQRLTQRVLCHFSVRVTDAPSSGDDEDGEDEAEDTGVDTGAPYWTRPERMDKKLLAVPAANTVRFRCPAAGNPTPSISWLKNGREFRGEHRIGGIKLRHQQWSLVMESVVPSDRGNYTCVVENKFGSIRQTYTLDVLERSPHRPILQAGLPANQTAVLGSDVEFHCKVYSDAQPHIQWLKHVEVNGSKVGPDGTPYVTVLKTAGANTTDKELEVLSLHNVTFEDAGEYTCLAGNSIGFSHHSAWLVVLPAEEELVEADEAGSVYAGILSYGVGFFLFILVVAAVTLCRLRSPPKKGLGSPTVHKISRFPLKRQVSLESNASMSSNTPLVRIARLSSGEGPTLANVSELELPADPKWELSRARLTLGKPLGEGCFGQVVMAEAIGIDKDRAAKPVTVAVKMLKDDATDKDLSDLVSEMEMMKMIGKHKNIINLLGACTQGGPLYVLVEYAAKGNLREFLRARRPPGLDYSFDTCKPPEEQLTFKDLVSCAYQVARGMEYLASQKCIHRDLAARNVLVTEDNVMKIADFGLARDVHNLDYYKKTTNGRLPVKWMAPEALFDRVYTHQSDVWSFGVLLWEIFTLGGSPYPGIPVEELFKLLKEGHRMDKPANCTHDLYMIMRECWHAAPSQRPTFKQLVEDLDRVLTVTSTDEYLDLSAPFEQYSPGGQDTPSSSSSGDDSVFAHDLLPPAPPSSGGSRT
smiles,measurement,setting,value
"Oc1cc(O)c2c(c1)O[C@H](c1ccc(O)c(O)c1)[C@H](O)C2 [(−)-epicatechin, (2R,3R)-2-(3,4-dihydroxyphenyl)-3,4-dihydro-2H-chromene-3,5,7-triol]",spatial memory deficits (NOL),[1]; [11],rescue
same,"spatial memory deficits (NOL), exploration of relocated object","[1]; daily subcutaneous 0.15 mg/kg, at least seven days, 4 months old male mice, vs control littermates p=0,9538",sufficient to restore
same,episodic memory deficits (NOR),[2]; [11],rescue
same,"episodic memory deficits (NOR), exploration of novel object","[2]; daily subcutaneous 0.15 mg/kg, at least seven days, 4 months old male mice, vs control littermates p=0,8697",sufficient to restore
same,memory deficits in the NOR paradigm,[3],reversed the memory deficits
same,coping strategy to an inescapable stress (FST),[4],reestablished the coping strategy
same,antidepressant effect (TST),[5],rescue
same,antidepressant effect (FST),"[6]; bottle treatment 3 mg/L, 4 weeks",rescue
same,antidepressant effect,"[6]; subcutaneous injection, FST and TST of FIG. 1",rescue
same,spatial memory deficits (Morrys Water Maze),[7],rescue
same,associative memory deficits (CFC),[8],rescue
same,locomotion and coordination fine (Bar beam),[9],rescue
same,efficacy in skeletal anomalies,[10]; FGFR3 related Achondroplasia mouse model (Martin et al 2021),showed the efficacy
same,functional activation of the FGFR3 downstream signalling pathway,[10]; [12],sufficient to abolish or eliminating
same,impairment of the ciliogenesis,[10]; [12],restore
same,binding specificity for FGFR3,FGFR3,highest binding specificity
